Biological target: Human recombinant 11beta-hydroxysteroid dehydrogenase type 1 (11beta-HSD1) (Homo sapiens, UniProt P28845)
Experiment: 11beta-HSD1 enzyme assay (HTRF cortisol)
Description: Mice liver microsome fractions were purchased from TEBU.
The 11beta-HSD1 enzyme assay was carried out in 96 well microtiter plates in a total volume of 100 μl containing 30 mM Hepes buffer, pH 7.4 with 1 mM EDTA, substrate mixture cortisone/NADPH (200 nM/200 μM), G-6-P (1 mM) and inhibitors in serial dilutions. […] Following mixing, the plates were shaken for 150 minutes at 37° C. The reactions were terminated with 10 μl Acid-18beta glycyrrhetinic stop solution. Determinations of cortisol levels in 11 beta-HSD1 preparations were monitored by HTRF (HTRF cortisol assay from Cis bio international).

Chain of Human recombinant 11beta-hydroxysteroid dehydrogenase type 1 (11beta-HSD1) (P28845 whole entry): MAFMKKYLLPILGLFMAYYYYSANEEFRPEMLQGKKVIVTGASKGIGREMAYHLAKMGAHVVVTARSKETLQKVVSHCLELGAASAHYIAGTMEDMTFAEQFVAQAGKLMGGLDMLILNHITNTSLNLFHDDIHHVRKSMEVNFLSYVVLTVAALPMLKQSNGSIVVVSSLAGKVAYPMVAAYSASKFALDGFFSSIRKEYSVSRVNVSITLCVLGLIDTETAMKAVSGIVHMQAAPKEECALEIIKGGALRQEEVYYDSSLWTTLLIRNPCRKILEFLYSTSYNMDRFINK

Q: `COc1cc(Cl)ccc1OCC(C)(C)CC(=O)NC1C2CC3CC(C2)CC1C3` (stereo not shown) was tested. Which IC50 did it give?
A: The IC50 was 45 nM.

Reference: patent publication US8183265B2, “2-adamantyl-butyramide derivatives as selective 11β-HSD1 inhibitors” (Merck Patent GmbH, priority 2006, dated 2012)
